This experiment can be described thus: Pilot clinical trial of Lipitor-Liprimar: serum lipids in human volunteers. In kind it is in vivo. Details: TG / CH-HDL / CH, mean / TG, mean / CH-LDL, mean / CH-HDL, mean: unit not given here. The method, then: Ten volunteers, 5 males and 5 females, aged 45-55 years old, were selected for this pilot clinical trial. 40 mg of Lipitor-Liprimar was given orally, with food, to each patient daily for two months.
Serum samples were collected from the blood of the patients before the treatment and after two months of treatment.

Setting [1] is: Lipitor 40 mg daily, two months.
Where [2] appears, read: individual patients, Lipitor 40 mg daily, orally, after 2 months of treatment.
Setting [3] is: mean of 10 patients, Lipitor 40 mg daily, orally, after 2 months of treatment.

Where “and” joins values, the source holds several entries; their conditions need not be identical. Equal entries are not always repeated.

For `CC(C)c1c(C(=O)Nc2ccccc2)c(-c2ccccc2)c(-c2ccc(F)cc2)n1CC[C@@H](O)C[C@@H](O)CC(=O)O` [Lipitor, Atorvastatin], under setting [1], the “total cholesterol (CH) reduction” value is on record as 17% and the “triglyceride (TG) reduction” value is reported as 22%. Further, the CH-LDL reduction (Lipitor-Liprimar 40 mg daily, two months) turned out to be 35%. For the same compound, under setting [2], the CH was 200 mg/dL (2×) and 140 mg/dL and 176 mg/dL and 188 mg/dL and 197 mg/dL and 170 mg/dL and 184 mg/dL and 209 mg/dL and 154 mg/dL; the CH-HDL is 38 and 42 (3×) and 47 (2×) and 39 and 43 (2×) and 49; the CH-LDL was 120 mg/dL (2×) and 145 mg/dL and 110 mg/dL (2×) and 146 mg/dL and 140 mg/dL and 100 mg/dL and 130 mg/dL (2×); the TG is 120 and 136 and 99 and 98 and 87 and 90 and 133 and 105 and 172 and 96. In addition, under setting [3], the “CH, mean” value came out at 182; the “CH-HDL, mean” value stood at 43; the “CH-LDL, mean” value came out at 100; the “TG, mean” value is 113.

These data come from US20120316249A1, “LYCOPENE FOR THE TREATMENT FOR METABOLIC DYSFUNCTION” (Cammedica limited, priority 2006, published 2012).
